# Read-outs that look alike come from different tables or passages of the source. {(KFF)3K-eg1} = H-(KFF)3K peptide (K lysine, F phenylalanine) with eg1 linker (8-amino-3,6-dioxaoctanoyl), on the PNA N terminus (5' end); {(kff)3k-eg1} = D-form (kff)3k peptide with eg1 linker (8-amino-3,6-dioxaoctanoyl), on the PNA N terminus; {(R-Ahx-R)4-Ahx} = H-(R-Ahx-R)4-Ahx peptide (R arginine, Ahx 6-aminohexanoyl), on the PNA N terminus; {NH2} = C-terminal amide
# Assays:
# Format in all cases: cell-based, Acinetobacter baumannii
# [1] = tested on: CRAB strain AC8; test: Antibiotic MIC (CLSI microdilution or gradient strips); settings: Acinetobacter baumannii
# Description: (§1) All minimum inhibitory concentration (MIC) determinations for antibiotics were performed by the standard microdilution method in 96-well microplate (Thermo-Scientific, Roskilde, Denmark) or by gradient test strips (Liofilchem, Italy) according to the Clinical and Laboratory Standards Institute guidelines. Escherichia coli ATCC 25922 was used as control.
# [2] = tested on: CRAB strain AC46; test: as above; settings: Acinetobacter baumannii
# Description: as §1
# [3] = tested on: CRAB strain AC4; test: as above; settings: Acinetobacter baumannii
# Description: as §1
# [4] = tested on: CRAB strain AC5; test: as above; settings: Acinetobacter baumannii, AC5, urine isolate
# Description: as §1
# [5] = tested on: CRAB strain AC2; test: as above; settings: Acinetobacter baumannii
# Description: as §1
# [6] = tested on: CRAB strain AC1; test: as above; settings: Acinetobacter baumannii, AC1, wound isolate
# Description: as §1
# [7] = tested on: CRAB strain AC44; test: as above; settings: Acinetobacter baumannii, AC44, urine isolate
# Description: as §1
# [8] = tested on: CRAB strain SSI1104; test: as above; settings: Acinetobacter baumannii, SSI1104
# Description: as §1
# [9] = tested on: CRAB strain AC9; test: as above; settings: Acinetobacter baumannii
# Description: as §1
# [10] = tested on: A. baumannii ATCC 19606 type strain; test: as above; settings: Acinetobacter baumannii, ATCC19606
# Description: as §1
# [11] = tested on: CRAB strain AC3; test: as above; settings: Acinetobacter baumannii, AC3, sputum isolate
# Description: as §1
# [12] = tested on: CRAB strain AC7; test: as above; settings: Acinetobacter baumannii
# Description: as §1, with “guidelines.” for “guidelines. Escherichia coli ATCC 25922 was used as control.”
# [13] = tested on: CRAB strain AC6; test: as above; settings: Acinetobacter baumannii
# Description: as §1, with “guidelines.” for “guidelines. Escherichia coli ATCC 25922 was used as control.”
# [14] = tested on: CRAB strain AC2; test: BPP-PNA MIC, broth microdilution
# Description: (§2) MIC values were determined by broth microdilution according to standard protocols with a few modifications. An overnight bacterial cell culture was diluted to approximately 5 × 10^5 CFU/mL in non-cation-adjusted Muller Hinton Broth (MHB). Then, 180 µL bacterial solutions were dispensed into a low-bind 96-well plate (Thermo-Scientific, Roskilde, Denmark) along with 20 µL of BPP-PNA compound (BPP-PNA was serially diluted 2-fold from 16 to 0.5 µM in a 96-well plate). The plate was incubated in a Tecan Genios plate reader (GMI, Minnesota, Ramsey, USA) at 37 °C for 18 h with linear shaking, OD was measured every 20 min at 595 nm. […] The minimum bactericidal concentration (MBC) values were determined by plating 10 µL samples from the wells with no visible turbidity onto Mueller–Hinton agar plates. The MBC is determined the lowest concentration of BPP-PNA that reduces the viability of the initial bacterial inoculum by ≥99.9% (3-log reduction in CFU/mL). A minimum of two independent experiments (biological replicates) of the assay were conducted, and two technical replicates were used in each experiment for each bacterium, compound, and concentration.
# [15] = tested on: CRAB strain AC44; test: BPP-PNA MIC, broth microdilution
# Description: as §2
# [16] = tested on: A. baumannii ATCC 19606; test: BPP-PNA MIC, broth microdilution; settings: 37 °C, 18 h
# Description: as §2
# [17] = tested on: CRAB strain AC46; test: BPP-PNA MIC, broth microdilution
# Description: as §2, with “An overnight bacterial cell culture was diluted to approximately 5 × 10^5 CFU/mL in non-cation-adjusted Muller Hinton Broth (MHB).” left out
# [18] = tested on: A. baumannii SSI1104; test: BPP-PNA MIC, broth microdilution
# Description: as §2, with “An overnight bacterial cell culture was diluted to approximately 5 × 10^5 CFU/mL in non-cation-adjusted Muller Hinton Broth (MHB).” left out
# [19] = AC8, sputum isolate, CLSI, read-out: MIC, AC8
# [20] = AC46, sputum isolate, CLSI, read-out: MIC, AC46
# [21] = AC4, trachea isolate, CLSI, read-out: MIC, AC4
# [22] = AC2, wound isolate, CLSI, read-out: MIC, AC2
# [23] = AC9, CSF isolate, CLSI, read-out: MIC, AC9
# [24] = AC7, blood isolate, CLSI, read-out: MIC, AC7
# [25] = AC6, blood isolate, CLSI, read-out: MIC, AC6
# [26] = Table 4 (anti-rne), brand of medium not given, non-cation-adjusted MHB by method
# [27] = Sigma MHB medium without cation, 37 °C, 18 h
# [28] = Sigma MHB medium without cation, ~5 × 10^5 CFU/mL, OD595 < 0.1
# [29] = MHB without cation (Oxoid), 37 °C, 18 h
molecule,measurement,setting,value
CC(C)(O/N=C(\C(=O)N[C@@H]1C(=O)N2C(C(=O)[O-])=C(C[n+]3ccccc3)CS[C@H]12)c1csc(N)n1)C(=O)O [Ceftazidime],MIC,[1]; [19],64 µg/mL
same,MIC,[2]; [20],128 µg/mL
same,MIC,[3]; [21],64 µg/mL
same,MIC,[4],32 µg/mL
same,MIC,[5]; [22],64 µg/mL
same,MIC,[6],64 µg/mL
same,MIC,[7],256 µg/mL
same,MIC,[8],> 8 µg/mL
same,MIC,[9]; [23],32 µg/mL
same,MIC,[10],8 µg/mL
same,MIC,[11],64 µg/mL
same,MIC,[12]; [24],64 µg/mL
same,MIC,[13]; [25],32 µg/mL
CNC(C)C1CCC(N)C(OC2C(N)CC(N)C(OC3OCC(C)(O)C(NC)C3O)C2O)O1 (stereo not drawn) [Gentamicin],MIC,"[1]; AC8, read-out: MIC, AC8",16 µg/mL
same,MIC,"[2]; AC46, read-out: MIC, AC46",16 µg/mL
same,MIC,"[3]; AC4, read-out: MIC, AC4",16 µg/mL
same,MIC,"[5]; AC2, read-out: MIC, AC2",16 µg/mL
same,MIC,[6],8 µg/mL
same,MIC,[8],32 µg/mL
same,MIC,"[9]; AC9, read-out: MIC, AC9",16 µg/mL
same,MIC,[10],4 µg/mL
same,MIC,[11],8 µg/mL
same,MIC,"[12]; AC7, read-out: MIC, AC7",16 µg/mL
same,MIC,"[13]; AC6, read-out: MIC, AC6",16 µg/mL
C[C@@H](O)[C@H]1C(=O)N2C(C(=O)O)=C(SCCN=CN)C[C@H]12 [Imipenem],MIC,[1]; [19],16 µg/mL
same,MIC,[2]; [20],16 µg/mL
same,MIC,[3]; [21],8 µg/mL
same,MIC,[4],16 µg/mL
same,MIC,[5]; [22],16 µg/mL
same,MIC,[6],8 µg/mL
same,MIC,[7],16 µg/mL
same,MIC,[9]; [23],16 µg/mL
same,MIC,[10],1 µg/mL
same,MIC,[11],32 µg/mL
same,MIC,[12]; [24],16 µg/mL
same,MIC,[13]; [25],16 µg/mL
CN(C)[C@@H]1C(O)=C(C(N)=O)C(=O)[C@@]2(O)C(O)=C3C(=O)c4c(O)cccc4[C@@](C)(O)[C@H]3C[C@@H]12 [Tetracycline],MIC,[1]; [19],32 µg/mL
same,MIC,[2]; [20],128 µg/mL
same,MIC,[7],256 µg/mL
same,MIC,[9]; [23],32 µg/mL
same,MIC,[10],1 µg/mL
"H-(KFF)3K-eg1- TTTGATGTGTG -NH2 (all peptide nucleic acid (PNA), 5' {(KFF)3K-eg1}, 3' {NH2}) [PNA 5822, anti-rne mismatch control of 5656]","MIC, AC2",[14]; [26],8 µM
same,"MIC, AC44",[15]; [26],8 µM
same,"MIC, ATCC 19606",[16]; [26],8 µM
same,"MIC, AC46",[17]; [26],8 µM
same,"MIC, SSI 1104",[18]; [26],8 µM
"H-(KFF)3K-eg1-ACGATTCTTGG-NH2 (all peptide nucleic acid (PNA), 5' {(KFF)3K-eg1}, 3' {NH2}) [PNA 5638, anti-rne mismatch control of 5637]","MIC, AC44",[15]; [26],2 µM
same,"MIC, ATCC 19606",[16]; [26],2 µM
same,"MIC, AC46",[17]; [26],1 µM
"H-(KFF)3K-eg1-ACGTTTCATGG-NH2 (all peptide nucleic acid (PNA), 5' {(KFF)3K-eg1}, 3' {NH2}) [PNA 5637, anti-rne peptide-PNA conjugate, match, −2 to +9]","MIC, AC44",[15]; [26],1 µM
same,"MIC, ATCC 19606",[16]; [26],1 µM
same,"MIC, AC46",[17]; [26],1 µM
"H-(KFF)3K-eg1-ATACCGCTTAC-NH2 (all peptide nucleic acid (PNA), 5' {(KFF)3K-eg1}, 3' {NH2}) [PNA 5653, anti-acpP mismatch control of 5652]","MIC, AC2",[14]; [27],4 µM
same,"MIC, AC44",[15]; [27],4 µM
same,"MIC, ATCC 19606",[16]; [28],4 µM
same,"MIC, AC46",[17]; [27],4 µM
same,"MIC, SSI 1104",[18]; [27],4 µM
"H-(KFF)3K-eg1-ATACGTTTCAT-NH2 (all peptide nucleic acid (PNA), 5' {(KFF)3K-eg1}, 3' {NH2}) [PNA 5654, anti-rne peptide-PNA conjugate, match, +1 to +11]","MIC, AC2",[14]; [26],2 µM
same,"MIC, AC44",[15]; [26],1 µM
same,"MIC, ATCC 19606",[16]; [26],2 µM
same,"MIC, AC46",[17]; [26],2 µM
same,"MIC, SSI 1104",[18]; [26],2 µM
"H-(KFF)3K-eg1-ATCCGTTTAAT-NH2 (all peptide nucleic acid (PNA), 5' {(KFF)3K-eg1}, 3' {NH2}) [PNA 5821, anti-rne mismatch control of 5654]","MIC, AC2",[14]; [26],2 µM
same,"MIC, AC44",[15]; [26],1 µM
same,"MIC, ATCC 19606",[16]; [26],4 µM
same,"MIC, AC46",[17]; [26],2 µM
same,"MIC, SSI 1104",[18]; [26],2 µM
"H-(KFF)3K-eg1-ATGAGGCCATG-NH2 (all peptide nucleic acid (PNA), 5' {(KFF)3K-eg1}, 3' {NH2}) [PNA 5657, anti-ftsZ peptide-PNA conjugate, match, −1 to +10]","MIC, AC44",[15]; [29],16 µM
same,"MIC, ATCC 19606",[16]; MHB without cation (Oxoid),>16 µM
"H-(KFF)3K-eg1-GGCCATGACCT-NH2 (N-terminal (KFF)3K-eg1 peptide, C-terminal amide, backbone not given here, further chemistry not given here) [PNA 5658, anti-ftsZ peptide-PNA conjugate, match, −5 to +6]","MIC, AC44",[15]; [29],8 µM
same,"MIC, ATCC 19606",[16]; MHB without cation (Oxoid),4 µM
same,"MIC, SSI 1104",[18]; [29],8 µM
"H-(KFF)3K-eg1-GTTTCATGGGT-NH2 (all peptide nucleic acid (PNA), 5' {(KFF)3K-eg1}, 3' {NH2}) [PNA 5655, anti-rne peptide-PNA conjugate, match, −4 to +7]","MIC, AC2",[14]; [26],8 µM
same,"MIC, AC44",[15]; [26],8 µM
same,"MIC, ATCC 19606",[16]; [26],4 µM
"H-(R-Ahx-R)4-Ahx-GAGTCCAGGAC-NH2 (all peptide nucleic acid (PNA), 5' {(R-Ahx-R)4-Ahx}, 3' {NH2}) [PNA 5616, anti-ftsZ (R-Ahx-R)4-Ahx-PNA, mismatch]","MIC, AC44",[15]; [29],>16 µM
same,"MIC, ATCC 19606",[16]; MHB without cation (Oxoid),>16 µM
"H-(kff)3k -eg1-TGACTTGTCAC-NH2 (all peptide nucleic acid (PNA), 5' {(kff)3k-eg1}, 3' {NH2}) [PNA 5824, anti-acpP PNA with D-form peptide, mismatch]","MIC, AC2",[14]; [27],8 µM
same,"MIC, AC44",[15]; [27],4 µM
same,"MIC, ATCC 19606",[16]; [28],8 µM
same,"MIC, AC46",[17]; [27],4 µM
same,"MIC, SSI 1104",[18]; [27],8 µM
"H-(kff)3k-eg1-TGATTTGCCAC-NH2 (all peptide nucleic acid (PNA), 5' {(kff)3k-eg1}, 3' {NH2}) [PNA 5823, anti-acpP PNA with D-form peptide, match]","MIC, AC2",[14]; [27],4 µM
same,"MIC, AC44",[15]; [27],4 µM
same,"MIC, ATCC 19606",[16]; [28],4 µM
same,"MIC, AC46",[17]; [27],4 µM
same,"MIC, SSI 1104",[18]; [27],4 µM

# Source: paper PMC8071358, “Targeting of the Essential acpP, ftsZ, and rne Genes in Carbapenem-Resistant Acinetobacter baumannii by Antisense PNA Precision Antibacterials” (Biomedicines, 2021)
